Entries after “also recorded” stand apart in the source; their conditions may differ. Read-outs that look alike come from different tables or passages of the source.
Assays:
[1] = Treatment emergent adverse events and safety monitoring of carrier, fetal subject and neonatal subject; assay type: in vivo, human; set-up: key to Serious (Y/N) / Study Term (Y/N): “Y” refers to yes; “N” refers to no; settings: for Adverse Event or MedDRA Term: exposed in utero, oral 0.15 mg/kg from 8 days post-birth, 0.15 mg/kg
Description: X1 included routine monitoring of the carrier for the third trimester, specifically with regards to development of hypertension and features of pre-eclampsia or HELLP syndrome, with related blood and urine testing. X1 also included monitoring nausea, vomiting, or dehydration in the carrier and placental integrity and amniotic fluid volume. X1 further included fetal monitoring for fetal growth, organ system development, and fetal well- being and any signs of organ maldevelopment, especially in the brain, heart, kidney, and liver. A baseline pre-treatment full anatomical ultrasound study and growth scan were performed and subsequent ultrasonography occurred at three and six weeks before delivery of the fetal subject as the neonatal subject.
Also in Table 3, “X2” included safety labs for the carrier, such as the CBC screening, the CMP screening, and the UA, to assess potential toxicity from risdiplam, which were collected before dosing and then prior to delivery. The safety labs were collected at the baseline before dosing, then every 3-4 weeks up to delivery, including pre-operatively prior to the scheduled cesarean section. More frequent testing may occur if clinically indicated.
In Table 4, the “X5” post-delivery PK/PD collection and safety labs of the neonatal subject included CBC screening, CMP screening, and UA, and such safety labs could be repeated if the results are deemed abnormal as compared to a healthy individual.
Table 5 summarizes results of the carrier and the fetal subject clinical assessments during the pregnancy of the carrier when exposed to risdiplam and in the neonatal subject for 6 weeks following delivery, for a minimum of 30 days following the last dose of risdiplam.
Specifically, Table 5 depicts the treatment emergent adverse events, seriousness of the event, intensity of the adverse event, relatedness of the adverse event to administration of the risdiplam, study term, and start and end dates for the adverse event the detected from this Example.
Each adverse event term is associated with a Medical Dictionary for Regulatory Activity (or MedDRA) term and the intensity is categorized based on the CTCAE grading. In Table 5, “Y” refers to yes and “N” refers to no and the intensity is measured from a lowest level of intensity or “I” to a highest level of intensity or “V.” “VSD” is a ventricular septal defect, “GERD” is gastroesophageal reflux disease, and “NICU” refers to neonatal intensive care unit.

[2] = tested on: SMN protein; settings: cited from earlier work
[3] = rodents and rabbits; cited from earlier work
[4] = clinical; set-up: species or system human; settings: in vivo
Method: The fetal subject assigned to this treatment plan received risdiplam through the carrier after all basic organ systems of the fetal subject had substantially completed fundamental embryogenesis in its third trimester of development in a range of from about thirty-two and a half weeks to its delivery from the carrier at about thirty-eight and a half weeks gestation. During this period, risdiplam was administered to the fetal subject through a carrier treatment cycle in which a single daily dose of 5 mg of risdiplam was administered orally to the carrier of the fetal subject.
Risdiplam trough drug levels were obtained from the carrier and the subject as the neonatal subject at time points represented in Table 2A and Table 2B from 32.5 weeks gestation prior to administration of risdiplam to the carrier through 43 days post-delivery. The risdiplam drug levels detected in plasma (ng/mL) of the carrier and the neonatal subject were determined by liquid chromatography-tandem mass spectroscopy (LC-MS/MS).
Since it was determined that a level of the risdiplam in the cord blood of the neonatal subject was less than about 100 ng/mL or about 0.1 mg/L when the neonatal subject was bom, the neonatal treatment cycle was initiated. The neonatal treatment cycle began 8 days after birth (d8) and included administering risdiplam to the neonatal subject at a single daily dose of 0.15 mg/kg.
In addition, in Table 3, blood samples for risdiplam PK and PD were collected from the carrier prior to the first dose of the risdiplam and 24-hours post- dose of the risdiplam. PK/PD samples were collected from the carrier every two weeks for up to six weeks after delivery to assess risdiplam clearance. At the time of delivery, samples of umbilical cord blood and amniotic fluid were collected to assess risdiplam exposure to the fetal subject in utero. Collection of the cord blood and the amniotic fluid could have also included collection of the cord blood and the amniotic fluid during pregnancy of the carrier if an amniocentesis was deemed to be needed.

Cc1cn2nc(-c3cc(=O)n4cc(N5CCNC6(CC6)C5)ccc4n3)cc(C)c2n1 [risdiplam, 7-(4,7-diazaspiro[2.5]octan-7-yl)-2-(2,8-dimethylimidazo[1,2-b]pyridazin-6-yl)-4H-pyrido[1,2-a]pyrimidin-4-one]
Serious (Y/N) ([1]; carrier adverse events): N | Study Term (Y/N) ([1]; carrier adverse events): N | Overall safety and tolerability ([1]; carrier and subject as fetal and neonatal subject): no drug-related adverse events; also recorded: safe and well tolerated | Surveillance labs during pregnancy ([1]; carrier while on risdiplam): normal until proteinuria was detected at 36WG | Fetal ultrasound assessments ([1]; fetal subject during carrier treatment): unremarkable | Biophysical profiles ([1]; fetal subject, each time point): normal | CBC, CMP, and U/A ([1]; neonatal subject): normal | Study Term (Y/N) ([1]; neonatal subject adverse events): N | Adverse Event or MedDRA Term ([1]; neonatal subject, adverse event number 1): Respiratory | Adverse Event or MedDRA Term ([1]; neonatal subject, adverse event number 2): Congenital disorder | Adverse Event or MedDRA Term ([1]; neonatal subject, adverse event number 3): Weight gain | SMN protein level in whole blood, reference values (median, range) ([2]; high dose 0.2 mg/kg/day, 4 W risdiplam): 5.9 (2.8-8.8) ng/mL | SMN protein level in whole blood, reference values (median, range) ([2]; high dose 0.2 mg/kg/day, 12 M risdiplam): 5.7 (2.7-8.6) ng/mL | SMN protein level in whole blood, reference values (median, range) ([2]; high dose 0.2 mg/kg/day, T0): T0: 2.5 (1.1-6.4) ng/mL | SMN protein level in whole blood, reference values (median, range) ([2]; low dose 0.08 mg/kg/day, 4 W risdiplam): 4.5 (2.6-5.6) ng/mL | SMN protein level in whole blood, reference values (median, range) ([2]; low dose 0.08 mg/kg/day, 12 M risdiplam): 3.0 (1.8-5.5) ng/mL | SMN protein level in whole blood, reference values (median, range) ([2]; low dose 0.08 mg/kg/day, T0): T0: 1.3 (0.6-4.8) ng/mL | Placental transfer [3]: crosses the placenta | Risdiplam level in amniotic fluid (AF) ([4]; female, human): 5.09 ng/mL | Risdiplam level in plasma, venous (V) ([4]; female, human): 15.6 ng/mL | concentration at 43 d postnatal ([4]; female, human): 0.4 ng/mL | Risdiplam level in plasma ([4]; female, human, 20 d postnatal): 0.7 ng/mL | Risdiplam level in plasma ([4]; female, human, 29 d postnatal): 0.6 ng/mL | Kp ([4]; female, human, Amniotic fluid risdiplam level relative to carrier plasma venous level): ~0.33 | Kp ([4]; female, human, Cord venous and arterial plasma risdiplam level relative to carrier plasma level): ~0.69 | Level of risdiplam in cord blood ([4]; human): less than 100 ng/mL | Risdiplam level in cord plasma, arterial (A) ([4]; human): 10.4 ng/mL | Risdiplam level in cord plasma, venous (V) ([4]; human): 11.2 ng/mL | half-life ([4]; human): 46 h | Risdiplam level in plasma ([4]; human, 8 d postnatal): 0.6 ng/mL | concentration at 43 d postnatal ([4]; human, po, 0.15 mg/kg/day): 62 ng/mL | Risdiplam trough level in plasma [4]: BLQ* | Placental transfer from carrier to fetal subject ([4]; po): crosses the placenta
